Patent publication US11306084B2, “Integrin antagonists” (Saint Louis University, priority 2016, dated 2022)
Structures can show the parent of a compound that is named as a salt.

Columns and labels:
Type in all cases: binding
[1] = biological target: T1, Recombinant human integrin ανβ1 (Homo sapiens, UniProt P05556+P06756); assay: Solid Phase Receptor Assay (SPRA) for ανβ1 function; settings: for IC50: plate-bound human fibronectin, read-out: αvβ1 SPRA IC50
T1 construct: purchased R&D Systems 6579-AV

[2] = biological target: T2, Recombinant human integrin ανβ5 (Homo sapiens, UniProt P06756+P18084); assay: Solid Phase Receptor Assay (SPRA) for ανβ5 function; settings: for IC50: plate-bound human vitronectin, read-out: αvβ5 SPRA IC50
T2 construct: purchased R&D Systems 2528-AV

[3] = biological target: T3, Recombinant human integrin ανβ6 (Homo sapiens, UniProt P06756+P18564); assay: Solid Phase Receptor Assay (SPRA) for ανβ6 function; settings: for IC50: plate-bound human LAP, read-out: αvβ6 SPRA IC50
T3 construct: purchased R&D Systems 3817-AV

[4] = biological target: T4, Recombinant human integrin ανβ8 (Homo sapiens, UniProt P06756+P26012); assay: Solid Phase Receptor Assay (SPRA) for ανβ8 function; settings: for IC50: plate-bound human LAP, read-out: αvβ8 SPRA IC50
T4 construct: purchased R&D Systems 4135-AV
T4 sequence (P06756 31-992 limits assumed): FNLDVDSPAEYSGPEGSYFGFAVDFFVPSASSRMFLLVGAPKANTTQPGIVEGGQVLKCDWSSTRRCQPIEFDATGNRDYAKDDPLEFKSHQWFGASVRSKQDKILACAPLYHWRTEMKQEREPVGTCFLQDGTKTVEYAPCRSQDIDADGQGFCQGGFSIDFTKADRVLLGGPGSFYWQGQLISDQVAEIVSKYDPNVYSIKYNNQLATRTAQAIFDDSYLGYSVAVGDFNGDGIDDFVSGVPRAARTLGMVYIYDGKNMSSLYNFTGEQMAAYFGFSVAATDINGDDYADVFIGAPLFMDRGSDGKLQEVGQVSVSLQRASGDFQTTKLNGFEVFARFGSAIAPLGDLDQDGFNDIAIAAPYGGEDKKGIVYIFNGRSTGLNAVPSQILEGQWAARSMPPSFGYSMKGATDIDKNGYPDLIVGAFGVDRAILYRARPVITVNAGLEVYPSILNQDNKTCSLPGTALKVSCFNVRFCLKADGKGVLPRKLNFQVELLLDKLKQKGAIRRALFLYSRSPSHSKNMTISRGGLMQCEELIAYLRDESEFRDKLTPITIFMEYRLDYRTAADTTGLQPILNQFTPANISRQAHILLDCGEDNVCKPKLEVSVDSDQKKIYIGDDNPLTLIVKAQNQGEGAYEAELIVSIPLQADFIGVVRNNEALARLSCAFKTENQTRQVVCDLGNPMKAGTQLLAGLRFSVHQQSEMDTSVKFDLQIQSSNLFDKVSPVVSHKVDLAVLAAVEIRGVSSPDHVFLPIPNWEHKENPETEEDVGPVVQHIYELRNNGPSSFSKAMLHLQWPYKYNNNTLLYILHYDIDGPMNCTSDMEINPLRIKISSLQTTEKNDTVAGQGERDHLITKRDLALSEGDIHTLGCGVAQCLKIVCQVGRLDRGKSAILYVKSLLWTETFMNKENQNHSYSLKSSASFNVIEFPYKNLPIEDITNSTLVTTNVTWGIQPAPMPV
T4 sequence (P26012 43-684 limits assumed): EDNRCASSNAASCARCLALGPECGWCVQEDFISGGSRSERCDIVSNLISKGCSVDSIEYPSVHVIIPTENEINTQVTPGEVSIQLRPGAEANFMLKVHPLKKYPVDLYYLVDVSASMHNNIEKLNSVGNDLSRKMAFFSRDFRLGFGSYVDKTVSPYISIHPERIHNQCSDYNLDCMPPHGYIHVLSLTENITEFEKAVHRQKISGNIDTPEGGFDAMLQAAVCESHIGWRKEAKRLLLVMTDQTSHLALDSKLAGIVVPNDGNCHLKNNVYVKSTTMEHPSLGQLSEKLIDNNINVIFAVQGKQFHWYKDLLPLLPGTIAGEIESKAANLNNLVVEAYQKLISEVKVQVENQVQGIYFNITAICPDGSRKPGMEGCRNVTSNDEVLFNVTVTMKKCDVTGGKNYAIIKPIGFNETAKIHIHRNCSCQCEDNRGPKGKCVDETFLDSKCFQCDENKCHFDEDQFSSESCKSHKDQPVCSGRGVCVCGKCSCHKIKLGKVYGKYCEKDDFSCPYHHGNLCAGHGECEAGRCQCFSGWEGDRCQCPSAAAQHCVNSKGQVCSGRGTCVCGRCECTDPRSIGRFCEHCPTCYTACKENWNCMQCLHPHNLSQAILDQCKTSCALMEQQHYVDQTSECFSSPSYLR

T3 sequence (P06756 31-992 limits assumed): as the sequence (P06756 31-992 limits assumed) above
T3 sequence (P18564 22-707 limits assumed): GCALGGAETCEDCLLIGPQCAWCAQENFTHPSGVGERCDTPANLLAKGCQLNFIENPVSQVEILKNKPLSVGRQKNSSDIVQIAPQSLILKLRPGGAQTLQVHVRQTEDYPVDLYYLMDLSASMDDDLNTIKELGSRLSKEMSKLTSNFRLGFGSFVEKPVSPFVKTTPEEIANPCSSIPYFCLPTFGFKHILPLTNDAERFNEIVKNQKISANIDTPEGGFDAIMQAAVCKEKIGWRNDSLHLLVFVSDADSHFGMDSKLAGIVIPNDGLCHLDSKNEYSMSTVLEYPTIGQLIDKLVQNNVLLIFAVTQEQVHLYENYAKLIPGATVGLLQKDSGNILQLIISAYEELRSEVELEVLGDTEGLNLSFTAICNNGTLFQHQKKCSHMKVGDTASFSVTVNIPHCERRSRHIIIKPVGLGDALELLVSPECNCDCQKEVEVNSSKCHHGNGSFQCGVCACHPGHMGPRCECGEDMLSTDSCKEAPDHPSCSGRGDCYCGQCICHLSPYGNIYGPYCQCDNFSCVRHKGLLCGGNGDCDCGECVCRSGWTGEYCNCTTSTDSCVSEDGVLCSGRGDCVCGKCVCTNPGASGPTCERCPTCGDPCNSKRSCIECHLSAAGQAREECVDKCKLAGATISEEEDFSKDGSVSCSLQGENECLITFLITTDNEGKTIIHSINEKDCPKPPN
T1 sequence (P06756 31-992 limits assumed): as the sequence (P06756 31-992 limits assumed) above
T1 sequence (P05556 21-728 limits assumed): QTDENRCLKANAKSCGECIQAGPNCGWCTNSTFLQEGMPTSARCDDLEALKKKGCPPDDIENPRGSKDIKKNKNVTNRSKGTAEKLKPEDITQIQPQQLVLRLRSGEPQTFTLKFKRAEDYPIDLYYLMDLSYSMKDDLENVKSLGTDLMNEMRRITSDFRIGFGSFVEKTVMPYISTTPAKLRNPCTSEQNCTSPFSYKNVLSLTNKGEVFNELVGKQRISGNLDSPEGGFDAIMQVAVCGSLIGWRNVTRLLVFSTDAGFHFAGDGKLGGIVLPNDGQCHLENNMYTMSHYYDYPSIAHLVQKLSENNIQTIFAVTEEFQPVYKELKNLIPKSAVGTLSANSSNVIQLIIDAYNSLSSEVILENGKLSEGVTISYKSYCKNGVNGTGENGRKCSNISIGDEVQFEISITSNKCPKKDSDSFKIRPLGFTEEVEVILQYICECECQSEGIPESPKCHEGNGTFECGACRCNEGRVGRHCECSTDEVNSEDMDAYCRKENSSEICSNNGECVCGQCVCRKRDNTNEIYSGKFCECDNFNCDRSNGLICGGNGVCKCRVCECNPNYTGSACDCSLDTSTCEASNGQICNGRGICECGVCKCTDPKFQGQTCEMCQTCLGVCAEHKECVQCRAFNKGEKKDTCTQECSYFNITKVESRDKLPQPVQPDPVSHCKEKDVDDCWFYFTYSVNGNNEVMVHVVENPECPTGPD
T2 sequence (P06756 31-992 limits assumed): as the sequence (P06756 31-992 limits assumed) above
T2 sequence (P18084 24-719 limits assumed): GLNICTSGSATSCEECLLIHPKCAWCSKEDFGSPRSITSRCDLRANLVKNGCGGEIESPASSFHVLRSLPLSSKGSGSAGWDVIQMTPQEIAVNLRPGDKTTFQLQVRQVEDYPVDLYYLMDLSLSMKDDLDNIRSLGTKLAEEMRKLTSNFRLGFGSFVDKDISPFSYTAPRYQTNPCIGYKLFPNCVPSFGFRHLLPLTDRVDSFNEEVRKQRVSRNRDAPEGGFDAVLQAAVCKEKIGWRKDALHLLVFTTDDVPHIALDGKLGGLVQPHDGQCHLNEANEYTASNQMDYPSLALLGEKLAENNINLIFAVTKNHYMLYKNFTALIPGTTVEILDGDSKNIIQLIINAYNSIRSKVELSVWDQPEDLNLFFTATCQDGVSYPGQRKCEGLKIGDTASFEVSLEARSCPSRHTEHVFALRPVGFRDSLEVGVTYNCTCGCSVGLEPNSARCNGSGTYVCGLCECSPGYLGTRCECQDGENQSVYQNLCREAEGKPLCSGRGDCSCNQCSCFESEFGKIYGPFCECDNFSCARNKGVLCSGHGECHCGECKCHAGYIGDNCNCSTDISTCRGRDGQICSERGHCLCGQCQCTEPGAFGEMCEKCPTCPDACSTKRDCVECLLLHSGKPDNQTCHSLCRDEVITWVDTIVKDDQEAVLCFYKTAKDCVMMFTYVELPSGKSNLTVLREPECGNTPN

| Compound | IC50 [1] | IC50 [2] | IC50 [3] | IC50 [4] | inhibitory activity at ανβ1 (in words) [1] | inhibitory activity at ανβ5 (in words) [2] | inhibitory activity at ανβ6 (in words) [3] | inhibitory activity at ανβ8 (in words) [4] |
| --- | --- | --- | --- | --- | --- | --- | --- | --- |
| Cn1nc(CC(CC(=O)O)c2cc(Cl)cc(C(C)(C)C(F)(F)F)c2)cc1OCCc1ccc2c(n1)NCCC2 (stereo not shown) [Example 27, 3-(3-chloro-5-(1,1,1-trifluoro-2-methylpropan-2-yl)phenyl)-4-(1-methyl-5-(2-(5,6,7,8-tetrahydro-1,8-naphthyridin-2-yl)ethoxy)-1H-pyrazol-3-yl)butanoic Acid] | 4.4 nM | 0.5 nM | 47 nM | 11 nM |  |  |  |  |
| Cn1nc(CC(CC(=O)O)c2cc(C#N)cc(C(C)(C)C(F)(F)F)c2)cc1OCCc1ccc2c(n1)NCCC2 (stereo not shown) [Example 28, 3-[3-cyano-5-(2,2,2-trifluoro-1,1-dimethyl-ethyl)phenyl]-4-[1-methyl-5-[2-(5,6,7,8-tetrahydro-1,8-naphthyridin-2-yl)ethoxyl]pyrazol-3-yl]butanoic Acid Trifluoroacetate] | 3.9 nM | 0.8 nM | 15 nM | 3.5 nM |  |  |  |  |
| COCC1(c2cc(Cl)cc(C(CC(=O)O)Cc3cc(OCCc4ccc5c(n4)NCCC5)n(C)n3)c2)CCOCC1 (stereo not shown) [Example 29, 3-(3-chloro-5-(4-(methoxymethyl)tetrahydro-2H-pyran-4-yl)phenyl)-4-(1-methyl-5-(2-(5,6,7,8-tetrahydro-1,8-naphthyridin-2-yl)ethoxy)-1H-pyrazol-3-yl)butanoic Acid] | 9.4 nM | 0.5 nM | 52 nM | 9.5 nM |  |  |  |  |
| COCC1(c2cc(F)cc(C(CC(=O)O)Cc3cc(OCCc4ccc5c(n4)NCCC5)n(C)n3)c2)CCOCC1 (stereo not shown) [Example 30, 3-(3-fluoro-5-(4-(methoxymethyl)tetrahydro-2H-pyran-4-yl)phenyl)-4-(1-methyl-5-(2-(5,6,7,8-tetrahydro-1,8-naphthyridin-2-yl)ethoxy)-1H-pyrazol-3-yl)butanoic Acid] | 6.6 nM | 0.5 nM | 180 nM | 81 nM |  |  |  |  |
| COCC1(c2cc(C(CC(=O)O)Cc3cc(OCCc4ccc5c(n4)NCCC5)n(C)n3)cc(C(F)(F)F)c2)CCOCC1 (stereo not shown) [Example 31, 3-(3-(4-(methoxymethyl)tetrahydro-2H-pyran-4-yl)-5-(trifluoromethyl)phenyl)-4-(1-methyl-5-(2-(5,6,7,8-tetrahydro-1,8-naphthyridin-2-yl)ethoxy)-1H-pyrazol-3-yl)butanoic Acid] | 1.4 nM | 3.3 nM | 63 nM | 9.9 nM |  |  |  |  |
| COc1ccc(C(C)(C)C)cc1C(CC(=O)O)Cc1cc(OCCc2ccc3c(n2)NCCC3)n(C)n1 (stereo not shown) [Example 32, 3-(5-(tert-butyl)-2-methoxyphenyl)-4-(1-methyl-5-(2-(5,6,7,8-tetrahydro-1,8-naphthyridin-2-yl)ethoxy)-1H-pyrazol-3-yl)butanoic Acid] | 0.9 nM | 280 nM | 230 nM | 87 nM | high inhibitory activity | low activity | low activity | low activity |
| COc1c(C(CC(=O)O)Cc2cc(OCCc3ccc4c(n3)NCCC4)n(C)n2)cccc1C(C)(C)C (stereo not shown) [Example 33, 3-(3-(tert-butyl)-2-methoxyphenyl)-4-(1-methyl-5-(2-(5,6,7,8-tetrahydro-1,8-naphthyridin-2-yl)ethoxy)-1H-pyrazol-3-yl)butanoic Acid] | 2400 nM | 3.1 nM | 2400 nM | 970 nM |  |  |  |  |
| COc1cc(C(C)(C)C)ccc1C(CC(=O)O)Cc1cc(OCCc2ccc3c(n2)NCCC3)n(C)n1 (stereo not shown) [Example 34, 3-(4-(tert-butyl)-2-methoxyphenyl)-4-(1-methyl-5-(2-(5,6,7,8-tetrahydro-1,8-naphthyridin-2-yl)ethoxy)-1H-pyrazol-3-yl)butanoic Acid] | 47 nM | 2.3 nM | 130 nM | 42 nM |  |  |  |  |
| Cn1nc(CC(CC(=O)O)c2cc(OC(F)(F)F)cc(C(C)(C)C)c2)cc1OCCc1ccc2c(n1)NCCC2 (stereo not shown) [Example 36, 3-[3-tert-butyl-5-(trifluoromethoxy)phenyl]-4-[1-methyl-5-[2-(5,6,7,8-tetrahydro-1,8-naphthyridin-2-yl)ethoxy]pyrazol-3-yl]butanoic Acid] | 6.5 nM | 1.1 nM | 120 nM | 40 nM |  |  |  |  |
| Cn1nc(CC(CC(=O)O)c2cc(C(C)(C)C)cc(C(F)(F)F)c2)cc1OCCc1ccc2c(n1)NCCC2 (stereo not shown) [Example 37, 3-[3-tert-butyl-5-(trifluoromethyl)phenyl]-4-[1-methyl-5-[2-(5,6,7,8-tetrahydro-1,8-naphthyridin-2-yl)ethoxyl]pyrazol-3-yl]butanoic Acid] | 7.5 nM | 6.2 nM | 140 nM | 18 nM |  |  |  |  |
| Cn1nc(CC(CC(=O)O)c2cc(F)cc(C(C)(C)C)c2)cc1OCCc1ccc2c(n1)NCCC2 (stereo not shown) [Example 38, 3-(3-(tert-butyl)-5-fluorophenyl)-4-(1-methyl-5-(2-(5,6,7,8-tetrahydro-1,8-naphthyridin-2-yl)ethoxy)-1H-pyrazol-3-yl)butanoic Acid] | 4.5 nM | 0.3 nM | 110 nM | 140 nM |  |  |  |  |
| COc1ccc(C(C)C)cc1C(CC(=O)O)Cc1cc(OCCc2ccc3c(n2)NCCC3)n(C)n1 (stereo not shown) [Example 39, 3-(5-isopropyl-2-methoxyphenyl)-4-(1-methyl-5-(2-(5,6,7,8-tetrahydro-1,8-naphthyridin-2-yl)ethoxy)-1H-pyrazol-3-yl)butanoic Acid Trifluoroacetate] | 3.2 nM | 96 nM | 230 nM | 110 nM |  |  |  |  |
| CC(C)c1cc(Br)cc(C(CC(=O)O)Cc2cc(OCCc3ccc4c(n3)NCCC4)n(C)n2)c1 (stereo not shown) [Example 40, 3-(3-bromo-5-isopropyl-phenyl)-4-[1-methyl-5-[2-(5,6,7,8-tetrahydro-1,8-naphthyridin-2-yl)ethoxyl]pyrazol-3-yl]butanoic acid trifluoroacetate] | 6.3 nM | 1.1 nM | 79 nM | 9 nM |  |  |  |  |
| CC(C)(C)c1cc(Br)cc(C(CC(=O)O)Cc2cc(OCCc3ccc4c(n3)NCCC4)n(CC(F)(F)F)n2)c1 (stereo not shown) [Example 41, 3-(3-bromo-5-tert-butyl-phenyl)-4-[5-[2-(5,6,7,8-tetrahydro-1,8-naphthyridin-2-yl)ethoxy]-1-(2,2,2-trifluoroethyl)pyrazol-3-yl]butanoic Acid Trifluoroacetate] | 4.5 nM | 2.2 nM | 85 nM | 6.9 nM |  |  |  |  |
| Cn1nc(CC(CC(=O)O)c2cc(C(C)(C)C)ccc2O)cc1OCCc1ccc2c(n1)NCCC2 (stereo not shown) [Example 42, 3-(5-tert-butyl-2-hydroxy-phenyl)-4-[1-methyl-5-[2-(5,6,7,8-tetrahydro-1,8-naphthyridin-2-yl)ethoxyl]pyrazol-3-yl]butanoic Acid Sodium Salt] | 2.4 nM | 6.6 nM | 20 nM | 3.1 nM |  |  |  |  |
| Cn1nc(CC(CC(=O)O)c2cc(C(C)(C)C)ccc2Cl)cc1OCCc1ccc2c(n1)NCCC2 (stereo not shown) [Example 43, 3-(5-(tert-butyl)-2-chlorophenyl)-4-(1-methyl-5-(2-(5,6,7,8-tetrahydro-1,8-naphthyridin-2-yl)ethoxy)-1H-pyrazol-3-yl)butanoic Acid Trifluoroacetate] | 7.3 nM | 16.6 nM | 800 nM | 88 nM |  |  |  |  |
| Cc1ccc(C(C)(C)C)cc1C(CC(=O)O)Cc1cc(OCCc2ccc3c(n2)NCCC3)n(C)n1 (stereo not shown) [Example 44, 3-(5-tert-butyl-2-methyl-phenyl)-4-[1-methyl-5-[2-(5,6,7,8-tetrahydro-1,8-naphthyridin-2-yl)ethoxy]pyrazol-3-yl]butanoic Acid Trifluoroacetate] | 14 nM | 76 nM | 7100 nM | 360 nM |  |  |  |  |
| COc1ccc(C#N)cc1C(CC(=O)O)Cc1cc(OCCc2ccc3c(n2)NCCC3)n(C)n1 (stereo not shown) [Example 46, 3-(5-cyano-2-methoxyphenyl)-4-(1-methyl-5-(2-(5,6,7,8-tetrahydro-1,8-naphthyridin-2-yl)ethoxy)-1H-pyrazol-3-yl)butanoic Acid Trifluoroacetate] | 8.1 nM | 1 nM | 30 nM | 31 nM |  |  |  |  |
| COc1ccc(C(N)=O)cc1C(CC(=O)O)Cc1cc(OCCc2ccc3c(n2)NCCC3)n(C)n1 (stereo not shown) [Example 47, 3-(5-carbamoyl-2-methoxyphenyl)-4-(1-methyl-5-(2-(5,6,7,8-tetrahydro-1,8-naphthyridin-2-yl)ethoxy)-1H-pyrazol-3-yl)butanoic Acid trifluoroacetate] | 4.9 nM | 0.3 nM | 77 nM | 3.6 nM |  |  |  |  |
| COc1ccc(C(=O)O)cc1C(CC(=O)O)Cc1cc(OCCc2ccc3c(n2)NCCC3)n(C)n1 (stereo not shown) [Example 48, 3-(1-carboxy-3-(1-methyl-5-(2-(5,6,7,8-tetrahydro-1,8-naphthyridin-2-yl)ethoxy)-1H-pyrazol-3-yl)propan-2-yl)-4-methoxybenzoic Acid Trifluoroacetate] | 19 nM | 0.7 nM | 680 nM | 92 nM |  |  |  |  |
| Cn1nc(CC(CC(=O)O)c2cccc(C(C)(C)C)c2)cc1OCCc1ccc2c(n1)NCCC2 (stereo not shown) [Example 49, 3-(3-tert-butylphenyl)-4-[1-methyl-5-[2-(5,6,7,8-tetrahydro-1,8-naphthyridin-2-yl)ethoxy]pyrazol-3-yl]butanoic Acid Trifluoroacetate] | 4.4 nM | 0.4 nM | 94 nM | 73 nM |  |  |  |  |
